The text below walks through data of US6599943B1, “Use of hydroxyguanidines” (WaPharm AB, priority 1996, dated 2003).

In assay [1] the target is bovine milk xanthine oxidase (Bos taurus, UniProt P80457). The experiment in a line: Capacity to sustain oxidation of xanthine by xanthine oxidase in the absence of oxygen, spectrophotometric. It counts as biochemical. Details: host or cells: bovine milk. The note with it: 50 μM hydroxyguanidine, 50 μM xanthine, 0.05 units/ml xanthine oxidase, anaerobic, pH 7.5, 20° C., blank subtracted. The procedure:
Capacities of a series of hydroxyguanidine to sustain the oxidation of xanthine by xanthine oxidase in the absence of oxygen. The capacities of various hydroxyguanidines to sustain the oxidation of xanthine was assayed by using a spectrophotometric method. In this method bovine milk xanthine oxidase was injected to a Helma® sealable cuvette for anaerobic application thereby creating 1 ml of a reaction mixture that contained reagents as follows: 50 μM of a hydroxyguanidine, 50 μM xanthine, 0.05 units/ml bovine milk xanthine oxidase, 50 mM Tris and 1.5 mM EDTA; the pH of the reaction mixture being 7.5, and the temperature 20° C. Anaerobic conditions were assured by pre-gassing all solutions used for 5-10 min, with nitrogen. The rate of formation of uric acid was monitored spectrophotometrically by measuring the increase in absorbance at 295 nm (the absorption maximum for uric acid) at intervals. The relative capacities of the hydroxyguanidines to sustain oxidation of xanthine were estimated from the derivative of the initial linear phase of the curves. To obtain blank readings an equal volume of the solvent of the hydroxyguanidine (water) was added to the reaction mixture in separate experiments and the initial rate of absorbance change was substracted from the rate readings of the tested hydroxyguanidine.
Exemplary initial rates for the rate of the support of the oxidation of xanthine obtained by assaying the exemplary hydroxyguanidines listed above by the method in the present example are furthermore given in Table 2: […]

For assay [2], the target named is T1, crude spleen cytosol (hydroxyguanidine reducing activity) (Rattus norvegicus, UniProt P22985).
T1 construct: from tissue; host or cells: rat spleen (70,000 x g supernatant)
T1 sequence (P22985 whole entry): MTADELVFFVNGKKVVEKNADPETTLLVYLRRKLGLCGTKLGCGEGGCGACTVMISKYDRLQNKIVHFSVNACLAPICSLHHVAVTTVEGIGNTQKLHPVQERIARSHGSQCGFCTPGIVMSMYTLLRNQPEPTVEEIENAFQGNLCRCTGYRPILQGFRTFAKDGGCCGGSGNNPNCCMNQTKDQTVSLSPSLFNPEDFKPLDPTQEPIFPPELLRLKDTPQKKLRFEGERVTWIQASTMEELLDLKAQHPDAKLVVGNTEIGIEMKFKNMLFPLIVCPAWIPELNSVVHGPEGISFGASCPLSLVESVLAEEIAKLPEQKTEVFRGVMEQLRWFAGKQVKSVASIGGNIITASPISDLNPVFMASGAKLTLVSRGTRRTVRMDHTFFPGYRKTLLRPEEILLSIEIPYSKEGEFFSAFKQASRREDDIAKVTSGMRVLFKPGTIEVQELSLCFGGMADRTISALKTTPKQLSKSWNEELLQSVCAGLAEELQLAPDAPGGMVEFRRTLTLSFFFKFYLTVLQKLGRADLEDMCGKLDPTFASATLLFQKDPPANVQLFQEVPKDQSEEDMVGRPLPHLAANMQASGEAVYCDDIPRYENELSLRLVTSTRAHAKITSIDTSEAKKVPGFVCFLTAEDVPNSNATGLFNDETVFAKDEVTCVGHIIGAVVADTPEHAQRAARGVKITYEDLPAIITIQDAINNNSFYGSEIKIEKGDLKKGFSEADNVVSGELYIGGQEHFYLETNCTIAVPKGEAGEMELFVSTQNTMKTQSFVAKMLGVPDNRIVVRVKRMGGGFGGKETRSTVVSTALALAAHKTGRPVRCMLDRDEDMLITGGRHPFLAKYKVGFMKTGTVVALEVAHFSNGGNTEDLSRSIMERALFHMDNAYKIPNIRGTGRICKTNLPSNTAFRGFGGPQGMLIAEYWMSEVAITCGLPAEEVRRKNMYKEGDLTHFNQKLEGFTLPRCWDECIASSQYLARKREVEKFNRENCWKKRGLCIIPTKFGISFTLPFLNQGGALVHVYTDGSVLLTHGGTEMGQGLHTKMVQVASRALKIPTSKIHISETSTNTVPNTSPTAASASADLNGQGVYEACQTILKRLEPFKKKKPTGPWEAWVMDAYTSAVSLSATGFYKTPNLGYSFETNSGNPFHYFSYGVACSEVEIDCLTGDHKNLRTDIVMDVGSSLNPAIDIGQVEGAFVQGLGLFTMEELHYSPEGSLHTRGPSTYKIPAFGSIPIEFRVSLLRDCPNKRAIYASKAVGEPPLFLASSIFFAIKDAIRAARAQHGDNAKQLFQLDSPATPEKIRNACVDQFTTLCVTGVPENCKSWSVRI
The experiment in a line: Reduction of guanoxabenz to guanabenz by crude spleen cytosol, HPLC. The class given is biochemical. The procedure: Preparation of crude spleen cytosol. Rat spleens were homogenised (1:10 w/v) in ice-cold […] Tris, 1.5 mM EDTA, pH 7.5 with glass/Teflon homogenizer. The homogenate was centrifuged at 30,000×g for 15 min at 4° C. and stored frozen at −80° C. After thawing the supernatant was centrifuged at 70,000×g for 1 hr at 4° C. and used for the assays.
Identification of a reaction product derived from hydroxyguanidine. Crude spleen cytosol was incubated at 25° C. with 70 μM guanoxabenz (2(2,6-dichlorophenyl)methylene-N-hydroxyhydrazine carboxi-imidamide) in the presence of 25 mM Tris-HCl, 0.75 mM EDTA, the total volume being 4 ml. Aliquots of 250 μl were then withdrawn from the reaction mixture after 1, 30, 60, 90 or 240 minutes and heated in a water bath to 80° C. for 5 minutes. The sample was then centrifuged and the supernatant filtered through a 0.22 μm Millipore filter whereafter 200 μl of the filtrate was injected into a reverse phase chromatography column (Waters Symmetry C8) equilibrated in 40% methanol, 60% 10 mM Na-acetate buffer, pH 4.5. The elution speed was 0.5 ml/min and the eluted substances were detected by a UV-monitor set at 260 nm.
In FIG. 1 is shown exemplary details on the time course of appearence of the product.
Preparation of the enzymatic reaction product for NMR-analysis. To obtain enough of the product for NMR studies guanoxabenz (500 μM) was pre-incubated with the crude spleen cytosol for 1 hr. […] Total volume of the reaction mixture was 4 ml. After the incubation the reaction mixture was boiled, centrifuged and filtered, essentially as described above, and aliquots of the materials injected onto the HPLC column. […] The fractions containing the product peak were collected, pooled and lyophilized and then subjected to NMR-analysis.

The mark [3] stands for this setting: 70 μM guanoxabenz, 25° C., after 1 minute incubation, HPLC 260 nm.
[4] abbreviates: 70 μM guanoxabenz, after 1 hour.

Chain of bovine milk xanthine oxidase (P80457 whole entry): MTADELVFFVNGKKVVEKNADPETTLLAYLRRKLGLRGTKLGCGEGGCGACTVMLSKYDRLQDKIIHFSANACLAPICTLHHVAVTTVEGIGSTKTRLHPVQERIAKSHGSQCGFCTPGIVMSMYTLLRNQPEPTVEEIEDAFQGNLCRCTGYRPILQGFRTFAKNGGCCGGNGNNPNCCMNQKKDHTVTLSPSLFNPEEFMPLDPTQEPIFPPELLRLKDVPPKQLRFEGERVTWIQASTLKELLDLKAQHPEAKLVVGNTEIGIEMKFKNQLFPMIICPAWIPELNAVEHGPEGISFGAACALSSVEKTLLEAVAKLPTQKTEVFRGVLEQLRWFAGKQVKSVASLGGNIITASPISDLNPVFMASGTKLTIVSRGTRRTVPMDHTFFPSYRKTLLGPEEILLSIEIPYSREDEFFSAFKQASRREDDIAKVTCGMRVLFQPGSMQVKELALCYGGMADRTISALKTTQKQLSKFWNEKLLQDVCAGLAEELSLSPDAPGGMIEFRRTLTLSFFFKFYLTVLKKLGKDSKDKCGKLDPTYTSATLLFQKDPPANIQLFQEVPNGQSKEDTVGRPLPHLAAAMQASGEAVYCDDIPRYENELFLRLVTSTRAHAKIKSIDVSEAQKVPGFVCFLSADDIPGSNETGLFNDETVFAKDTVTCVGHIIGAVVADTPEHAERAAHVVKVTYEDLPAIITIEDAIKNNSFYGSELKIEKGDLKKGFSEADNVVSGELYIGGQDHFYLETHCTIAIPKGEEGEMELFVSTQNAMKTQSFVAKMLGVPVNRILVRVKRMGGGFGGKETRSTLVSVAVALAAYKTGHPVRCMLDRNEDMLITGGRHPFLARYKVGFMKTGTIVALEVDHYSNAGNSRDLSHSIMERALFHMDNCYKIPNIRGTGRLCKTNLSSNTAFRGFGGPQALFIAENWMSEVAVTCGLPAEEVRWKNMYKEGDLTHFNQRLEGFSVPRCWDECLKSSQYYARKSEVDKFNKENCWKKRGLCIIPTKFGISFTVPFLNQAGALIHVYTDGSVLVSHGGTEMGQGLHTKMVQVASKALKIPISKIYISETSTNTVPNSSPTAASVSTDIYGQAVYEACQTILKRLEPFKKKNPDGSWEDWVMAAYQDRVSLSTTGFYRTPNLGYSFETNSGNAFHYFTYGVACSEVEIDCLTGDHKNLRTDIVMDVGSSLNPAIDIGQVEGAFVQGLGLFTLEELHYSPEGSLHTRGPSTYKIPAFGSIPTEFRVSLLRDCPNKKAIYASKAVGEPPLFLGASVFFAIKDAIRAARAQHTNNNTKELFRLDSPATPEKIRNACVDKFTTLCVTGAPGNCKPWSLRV

For the compound `N=C(NO)NN=Cc1c(Cl)cccc1Cl` [Guanoxabenz, 2(2,6-dichlorophenyl)methylene-N-hydroxyhydrazine carboxi-imidamide], the “V = 1000 × (Δabs 295 nm) min^−1 (initial rate of the support of the oxidation of xanthine)” value in assay [1] is 40 1000 × (Δabs 295 nm) min^−1. Besides, in assay [2] (setting [3]), the “UV-absorption corresponding to the guanabenz peak” value is 5% and the “UV-absorption in the guanoxabenz peak” value is on record as 95%. Moreover, in assay [2] (setting [4]), the “guanabenz peak as part of total absorbance of the chromatograms” value was “about ⅓” and the “guanoxabenz peak as part of total absorbance of the chromatograms” value is listed as “⅔”. Also, the “size of guanabenz and guanoxabenz peaks” value in assay [2] (70 μM guanoxabenz, after 4 hours) is “about equal size”. In assay [2] (500 μM guanoxabenz, 1 hr, MgCl2 (2 mM) and DTT (2 mM)), the “peak corresponding to guanabenz, share of UV-absorbing material (260 nm)” value was “more than 99%”.
